What was measured:
Format in all cases: in vivo
[1] = system: Ctenocephalides felis; experiment: Ctenocephalides felis test (CTECFE), blood feeding; conditions: application rate of 100 ppm in cattle blood; adult unfed fleas; after 2 days
Description: (§1) Solvent: dimethyl sulfoxide
To produce a suitable preparation of active compound, 10 mg of active compound are dissolved in 0.5 ml solvent, and the concentrate is diluted with cattle blood to the desired concentration.
Approximately 10 to 15 adult unfed (Ctenocepahlides felis) are placed in flea chambers. The blood chamber, are sealed with paraffin on the bottom are filled with cattle blood supplied with compound solution and placed on top of the flea chamber, so that the fleas are able to suck the blood. The blood chamber is heated to 37° C. whereas the flea chamber is kept at room temperature. After 2 days mortality in % is determined. 100% means that all the fleas have been killed; 0% means that none of the fleas have been killed.

[2] = system: Musca domestica; experiment: Musca domestica test; conditions: application rate of 100 ppm; adults, sugar sponge; after 2 days
Description: as §1
To produce a suitable preparation of active compound, 10 mg of active compound are dissolved in 0.5 ml solvent, and the concentrate is diluted with water to the desired concentration. Prior to the assay, a piece or kitchen sponge is soaked with a mixture of sugar and compound solution and placed into a container. 10 adults (Musca domestica) are placed into the container and closed with a perforated lid. After 2 days mortality in % is determined. 100% means that all the flies have been killed; 0% means that none of the flies have been killed.

[3] = system: tobacco cutworm (Spodoptera litura) larvae; experiment: Test against tobacco cutworm (Spodoptera litura) larvae, leaf dip; conditions: active compound concentration of 100 ppm; third-instar larvae on sweet potato leaves; after 7 days
In short: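 Sweet potato leaves dipped in compound diluted in water (DMF solvent, polyoxyethylene alkyl phenyl ether emulsifier), air-dried, and given to ten third-instar larvae per dish at 25 °C, with fresh leaves on days 2 and 4. Mortality (%) scored after 7 days, averaged over two dishes.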

[4] = system: cucurbit leaf beetle (Aulacophora femoralis); experiment: Test against cucurbit leaf beetle (Aulacophora femoralis), leaf dip; conditions: active compound concentration of 100 ppm; second-instar larvae on cucumber leaves; after 7 days
Description: (§2) Unless not mentioned otherwise, the test solutions were prepared as follows:
(§3) Containing as solvent: Dimethylformamide, 3 parts by weight; and as emulsifier: Polyoxyethylene alkyl phenyl ether, 1 part by weight
(§4) To prepare the test solution, 1 part by weight of an active compound is mixed with the above-mentioned amount of solvent containing the above-mentioned amount of emulsifier, and the mixture is diluted with water to the desired concentration.
Cucumber leaves were immersed in the test solution at the appropriate concentration, and the leaves were dried in air. The leaves were then placed in a plastic cup containing sterilized black soil, and five second-instar larvae of cucurbit leaf beetle were released therein. The plastic cup was placed in a temperature-controlled chamber at 25° C. After 7 days, the number of dead larvae was counted, and thus the insecticidal activity was calculated. An insecticidal activity of 100% means that all beetles were killed, whereas an insecticidal activity of 0% means that no beetle was killed.

[5] = system: two-spotted spider mite (Tetranychus urticae); experiment: Test against two-spotted spider mite (Tetranychus urticae), spray; conditions: concentration of 100 ppm; adult mites on kidney beans; after 7 days
Description: as §2, §3, §4
50 to 100 adult two-spotted spider mites were inoculated onto the leaves of kidney beans at the two-true leaf stage, which plant had been cultivated in a pot having a diameter of 6 cm. After one day, test solution at the appropriate concentration was sprayed thereon in a sufficient amount using a spray gun. After the spraying, the plant pot was placed inside a greenhouse, and after 7 days, the acaricidal activity was calculated. An acaricidal activity of 100% means that all mites were killed, whereas an acaricidal activity of 0% means that no mite was killed.

[6] = system: Lucilia cuprina larvae; experiment: Lucilia cuprina test; conditions: application rate of 100 ppm; larvae on minced horse meat; after 2 days
Description: as §1
To produce a suitable preparation of active compound, 10 mg of active compound are dissolved in 0.5 ml solvent, and the concentrate is diluted with water to the desired concentration. Approximately 20-30 (Lucilia cuprina larvae) are transferred into a test tube containing 1 cm^3 of minced horse meat and 0.5 ml aqueous dilution of test compound. After 2 days mortality in % is determined. 100% means that all the larvae have been killed; 0% means that none of the larvae have been killed.

[7] = system: Boophilus microplus; experiment: Boophilus microplus test (injection); conditions: application rate of 20 μg/animal; injection into adult engorged female ticks; after 7 days
Description: as §1
To produce a suitable preparation of active compound, 10 mg of active compound are dissolved in 0.5 ml solvent, and the concentrate is diluted with solvent to the desired concentration. Five adult engorged female ticks (Boophilus microplus) are injected with compound solution into the abdomen. Ticks are transferred into replica plates and incubated in a climate chamber for a period of time. Egg deposition of fertile eggs is monitored. After 7 days mortality in % is determined. 100% means that all eggs are infertile; 0% means that all eggs are fertile.

[8] = system: mustard beetle larvae (Phaedon cochleariae); experiment: Phaedon cochleariae test (PHAECO spray application); conditions: application rate of 500 g/ha; Chinese cabbage leaf-disks; after 7 days
Description: Solvent: 78.0 parts by weight of acetone and 1.5 parts by weight of dimethylformamide
Emulsifier: 0.5 parts by weight of alkylaryl polyglycolether
To produce a suitable preparation of active compound, 1 part by weight of active compound is mixed with the stated amount of solvent and emulsifier, and the concentrate is diluted with emulsifier-containing water to the desired concentration. Chinese cabbage (Brassica pekinesis) leaf-disks are sprayed with a preparation of the active ingredient of the desired concentration. Once dry, the leaf disks are infested with mustard beetle larvae (Phaedon cochleariae). After 7 days mortality in % is determined. 100% means that all beetle larvae have been killed and 0% means that none of the beetle larvae have been killed.

| Structure (SMILES) | activity (mortality in %) [1] | activity (mortality in %) [2] | insecticidal activity [3] | insecticidal activity [4] | acaricidal activity rate [5] | activity (mortality in %) [6] | activity (mortality in %; 100% means all eggs are infertile) [7] | activity (mortality in %) [8] |
| --- | --- | --- | --- | --- | --- | --- | --- | --- |
| CCOC(c1cc(I)c(NC(=O)c2cccc(NC(=O)c3cccnc3F)c2)c(I)c1)(C(F)(F)F)C(F)(F)F [1-59] | 95% | 100% | 100% | 100% | – | – | – | – |
| CCOC(c1cc(I)c(NC(=O)c2cccc(NC(=O)c3cccnc3Cl)c2)c(I)c1)(C(F)(F)F)C(F)(F)F [1-40] | 90% | 100% | 100% | 100% | 100% | – | – | – |
| CCOC(=O)Nc1cccc(C(=O)Nc2c(I)cc(C(OCC)(C(F)(F)F)C(F)(F)F)cc2I)c1 [1-24] | – | 90% | 100% | – | – | – | – | – |
| CCOC(c1cc(I)c(NC(=O)c2cccc(NC(=O)c3ccccc3)c2)c(I)c1)(C(F)(F)F)C(F)(F)F [1-25] | 90% | 80% | 100% | 100% | – | – | – | – |
| CCOC(c1cc(I)c(NC(=O)c2cccc(NC(=O)c3ccc(Cl)nc3)c2)c(I)c1)(C(F)(F)F)C(F)(F)F [1-60] | 100% | 100% | 100% | 100% | 100% | – | – | – |
| Cc1cc(C(n2nc(C(F)(F)F)cc2C(F)(F)F)(C(F)(F)F)C(F)(F)F)cc(C)c1NC(=O)c1cccc(NC(=O)c2ccccc2F)c1 [2-124] | – | – | 100% | – | – | 90% | – | – |
| C#CCOC(c1cc(I)c(NC(=O)c2cccc(NC(=O)c3cccnc3Cl)c2)c(I)c1)(C(F)(F)F)C(F)(F)F [1-80] | 80% | 100% | 100% | – | – | – | – | – |
| CCc1cc(C(n2cc(C(F)(F)F)cn2)(C(F)(F)F)C(F)(F)F)cc(C)c1NC(=O)c1cccc(N)c1 [11-114] | – | – | – | – | – | – | 80% | – |
| Cc1cc(C(n2nc(C)c(Br)c2C)C(F)(F)F)cc(C)c1NC(=O)c1cccc([N+](=O)[O-])c1 (racemic) [11-143] | – | – | – | – | – | – | – | 100% |
| CCOC(c1cc(I)c(NC(=O)c2cccc(NC(=O)c3ccccc3F)c2)c(I)c1)(C(F)(F)F)C(F)(F)F [1-26] | 100% | 90% | 100% | 100% | – | – | – | – |
| Cc1cc(C(n2cc(Cl)c(C(F)(F)C(F)(F)F)n2)(C(F)(F)F)C(F)(F)F)cc(C)c1NC(=O)c1cccc(NC(=O)c2cccnc2Cl)c1 [2-120] | – | – | 100% | – | – | 90% | – | – |
| CCOC(c1cc(I)c(NC(=O)c2cccc(NC(=O)c3cccc(F)c3)c2)c(I)c1)(C(F)(F)F)C(F)(F)F [1-27] | 90% | 80% | 100% | 100% | 100% | – | – | – |
| Cc1cc(C(n2cc(C(F)(F)F)cn2)C(F)(F)C(F)(F)F)cc(C)c1NC(=O)c1cccc(NC(=O)c2cccnc2Cl)c1 (stereo not shown) [2-104] | 100% | 80% | 100% | 100% | – | 90% | – | – |

— patent publication US20110201603A1, “Novel Acylaminobenzamide Derivatives” (Bayer CropScience AG, priority 2008, published 2011)
